Results from patent US9884063B2, “Amido-substituted azole compounds” (Bayer Pharma Aktiengesellschaft, priority 2014, dated 2018).

Tests used:
[1] = tested on: HEK293 FOP control reporter cell line; experiment: HEK293 FOP Assay (FOP control vector luciferase reporter); assay type: cell-based; conditions: Homo sapiens
Summary of the method: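 Stable HEK293 line carrying the FOP vector (randomized, non-functional TCF sites; Geneticin-selected) was run in parallel with the TOP line. Cells were plated 24 h ahead at 10000/well and given recombinant human Wnt-3a at 2500–5 ng/ml. Compounds were tested at 50 μM–15 nM (3.16-fold steps) in CAFTY buffer, pH 7.4, with 2 mM Ca2+ and 0.01% BSA.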

[2] = target: T1, TNKS1 (Homo sapiens, UniProt O95271); experiment: TNKS1 Assay 1 (TNKS1 Histone Ribosylation Assay Kit, biotin-labeled NAD+); assay type: biochemical; conditions: chemiluminescent readout, 384 well
T1 sequence (O95271 1-1327): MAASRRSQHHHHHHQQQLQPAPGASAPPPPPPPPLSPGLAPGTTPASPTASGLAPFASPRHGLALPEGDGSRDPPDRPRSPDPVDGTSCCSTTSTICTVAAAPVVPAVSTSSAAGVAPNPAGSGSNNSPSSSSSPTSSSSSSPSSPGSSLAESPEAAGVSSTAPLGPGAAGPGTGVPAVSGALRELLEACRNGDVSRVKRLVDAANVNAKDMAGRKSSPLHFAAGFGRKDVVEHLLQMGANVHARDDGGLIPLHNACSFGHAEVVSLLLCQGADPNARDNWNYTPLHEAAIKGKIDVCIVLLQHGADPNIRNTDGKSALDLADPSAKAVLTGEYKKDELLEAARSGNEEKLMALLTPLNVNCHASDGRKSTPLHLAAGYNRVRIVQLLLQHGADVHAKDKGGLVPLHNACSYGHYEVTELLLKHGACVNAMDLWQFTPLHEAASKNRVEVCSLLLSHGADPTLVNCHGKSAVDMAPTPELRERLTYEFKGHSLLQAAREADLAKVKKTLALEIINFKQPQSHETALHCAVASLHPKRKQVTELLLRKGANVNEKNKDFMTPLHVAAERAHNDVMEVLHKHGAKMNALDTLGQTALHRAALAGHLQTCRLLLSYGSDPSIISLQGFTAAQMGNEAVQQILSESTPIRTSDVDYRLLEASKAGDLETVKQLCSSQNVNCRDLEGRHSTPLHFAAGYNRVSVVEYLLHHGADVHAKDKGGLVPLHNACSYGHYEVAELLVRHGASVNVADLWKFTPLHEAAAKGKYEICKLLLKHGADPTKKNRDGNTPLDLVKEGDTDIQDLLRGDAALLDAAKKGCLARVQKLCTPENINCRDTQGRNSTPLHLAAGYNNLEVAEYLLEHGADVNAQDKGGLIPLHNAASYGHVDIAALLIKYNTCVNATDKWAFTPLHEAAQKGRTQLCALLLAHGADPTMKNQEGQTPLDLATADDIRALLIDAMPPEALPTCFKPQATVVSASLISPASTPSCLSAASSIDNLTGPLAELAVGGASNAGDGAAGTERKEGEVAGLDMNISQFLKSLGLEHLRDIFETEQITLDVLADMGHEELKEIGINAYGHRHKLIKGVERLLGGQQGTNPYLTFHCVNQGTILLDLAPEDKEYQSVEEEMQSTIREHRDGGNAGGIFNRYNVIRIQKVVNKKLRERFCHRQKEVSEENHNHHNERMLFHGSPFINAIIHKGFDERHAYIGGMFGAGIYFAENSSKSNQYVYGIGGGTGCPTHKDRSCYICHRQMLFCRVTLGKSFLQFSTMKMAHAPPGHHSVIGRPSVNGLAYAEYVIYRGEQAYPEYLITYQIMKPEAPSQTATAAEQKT
Procedure: The potency of the compounds according to the invention was assessed by applying an in vitro inhibition assay. The TNKS1 catalyzed NAD^+-dependent ribosylation of a suitable protein substrate was detected using a commercially available biotin/streptavidin binding based assay format [TNKS1 Histone Ribosylation Assay Kit (Biotin-labeled NAD+), Catalog #80579; BPS Bioscience, San Diego, USA]. Here, the incorporation of a biotin-labeled NAD+ during the TNKS1 catalyzed ribosylation reaction was detected with a streptavidin-HRP coupled chemi-luminescent readout. The intensity of the readout signal is proportional to the incorporated NAD^+. Inhibition of TNKS1 leads to a decreased incorporation of NAD^+ and consequently to a lower readout signal intensity. The concentration of a test compound which inhibits the enzyme activity by 50% (corresponds to half of the normed readout signal intensity) is reported as IC50.
The assay was conducted in a 384 well MTP format according to the manufacturer's protocol [bpsbioscience.com/poly-adp-ribose-polymerase/assay-kit/tnks1-histone-ribosylation-assay-kit-biotin-labeled-nad-80579 referencing: Brown, J. A., Marala, R. B. J. Pharmacol. Toxicol. Methods 2002 47:137-41] and using a BMG Pherastar MTP reader [BMG-Labtech, Offenburg, Germany].

[3] = HEK293 FOP control reporter cell line, 16 hours incubation, compound dilution series 50 μM to 15 nM
[4] = HEK293 FOP control reporter cells, 16 hours, luciferase, dilution series from 50 μM

SMILES | IC50 [1, 3] [µM] | IC50 [1, 4] [µM] | IC50 ([2]; Table 1) [µM] | IC50 ([2]; first table) [µM]
CNC(=O)c1nc[nH]c1C(=O)Nc1ccc(NC(=O)c2cccc(Cl)c2Cl)cc1 [Example 1, N^5-{4-[(2,3-dichlorobenzoyl)amino]phenyl}-N^4-methyl-1H-imidazole-4,5-dicarboxamide] | 24 | 25 | 1.01 | 1.01
CNC(=O)c1nc[nH]c1C(=O)Nc1ccc(NC(=O)c2ccc(N3CCCC3)cc2F)cc1 [Example 3, N^5-(4-{[2-fluoro-4-(pyrrolidin-1-yl)benzoyl]amino}phenyl)-N^4-methyl-1H-imidazole-4,5-dicarboxamide] | – | ≥ 50 | > 100 | –
CNC(=O)c1nc[nH]c1C(=O)Nc1ccc(NC(=O)c2ccc(N(C)C)cc2Cl)cc1 [Example 4, N^5-(4-{[2-chloro-4-(dimethylamino)benzoyl]amino}phenyl)-N^4-methyl-1H-imidazole-4,5-dicarboxamide] | 42 | 42 | 0.12 | 0.12
CNC(=O)c1nc[nH]c1C(=O)Nc1ccc(NC(=O)c2ccc(F)cc2Cl)c(C)c1 [Example 5, N^5-{4-[(2-chloro-4-fluorobenzoyl)amino]-3-methylphenyl}-N^4-methyl-1H-imidazole-4,5-dicarboxamide] | 11 | 11 | 0.32 | 0.32
O=C(NCCN1CCCCC1)c1nc[nH]c1C(=O)Nc1ccc(NC(=O)c2c(F)cc(F)cc2Cl)cc1 [Example 119, N^5-{4-[(2-chloro-4,6-difluorobenzoyl)amino]phenyl}-N^4-[2-(piperidin-1-yl)ethyl]-1H-imidazole-4,5-dicarboxamide] | 20 | – | – | –
CNC(=O)c1nc[nH]c1C(=O)Nc1ccc(NC(=O)c2cc(OCCN3CCCCC3)ccc2Cl)cc1 [Example 125, N^5-[4-({2-chloro-5-[2-(piperidin-1-yl)ethoxy]benzoyl}amino)phenyl]-N^4-methyl-1H-imidazole-4,5-dicarboxamide] | 15 | – | – | –
CC1CCN(CCNC(=O)c2nc[nH]c2C(=O)Nc2ccc(NC(=O)c3ccc(F)cc3Cl)cc2)CC1 [Example 126, N^5-{4-[(2-chloro-4-fluorobenzoyl)amino]phenyl}-N^4-[2-(4-methylpiperidin-1-yl)ethyl]-1H-imidazole-4,5-dicarboxamide] | 27 | – | – | –
CC(C)CNC(=O)c1[nH]cnc1C(=O)Nc1ccc(NC(=O)c2ccc(F)cc2Cl)cc1 [Example 147, N^4-{4-[(2-chloro-4-fluorobenzoyl)amino]phenyl}-N^5-isobutyl-1H-imidazole-4,5-dicarboxamide] | 6 | – | – | –
CC(C)(C)CNC(=O)c1[nH]cnc1C(=O)Nc1ccc(NC(=O)c2ccccc2Cl)cc1 [Example 148, N^4-{4-[(2-chlorobenzoyl)amino]phenyl}-N^5-(2,2-dimethylpropyl)-1H-imidazole-4,5-dicarboxamide] | 16 | – | – | –
CC(C)(CNC(=O)c1[nH]cnc1C(=O)Nc1ccc(NC(=O)c2ccccc2Cl)cc1)N1CCCCC1 [Example 165, N^4-{4-[(2-chlorobenzoyl)amino]phenyl}-N^5-[2-methyl-2-(piperidin-1-yl)propyl]-1H-imidazole-4,5-dicarboxamide] | 31 | – | – | –
CC(C)(CN1CCCCC1)NC(=O)c1[nH]cnc1C(=O)Nc1ccc(NC(=O)c2ccccc2Cl)cc1 [Example 171, N^4-{4-[(2-chlorobenzoyl)amino]phenyl}-N^5-[2-methyl-1-(piperidin-1-yl)propan-2-yl]-1H-imidazole-4,5-dicarboxamide] | 6.5 | – | – | –
CC(C)(CN1CCOCC1)NC(=O)c1[nH]cnc1C(=O)Nc1ccc(NC(=O)c2ccc(F)cc2)cc1 [Example 180, N^4-{4-[(4-fluorobenzoyl)amino]phenyl}-N^5-[2-methyl-1-(morpholin-4-yl)propan-2-yl]-1H-imidazole-4,5-dicarboxamide] | 37 | – | – | –
CN1CCN(C(C)(C)CNC(=O)c2[nH]cnc2C(=O)Nc2ccc(NC(=O)c3ccc(F)cc3Cl)cc2)CC1 [Example 187, N^4-{4-[(2-chloro-4-fluorobenzoyl)amino]phenyl}-N^5-[2-methyl-2-(4-methylpiperazin-1-yl)propyl]-1H-imidazole-4,5-dicarboxamide] | 28 | – | – | –
O=C(Nc1ccc(NC(=O)c2nc[nH]c2C(=O)NCCCCN2CCCCC2)cc1)c1ccccc1Cl [Example 189, N^4-{4-[(2-chlorobenzoyl)amino]phenyl}-N^5-[4-(piperidin-1-yl)butyl]-1H-imidazole-4,5-dicarboxamide] | 28 | – | – | –
O=C(Nc1ccc(NC(=O)c2nc[nH]c2C(=O)NCCCN2CCOCC2)cc1)c1ccccc1Cl [Example 200, N^4-{4-[(2-chlorobenzoyl)amino]phenyl}-N^5-[3-(morpholin-4-yl)propyl]-1H-imidazole-4,5-dicarboxamide] | 20 | – | – | –
CC1CCCN(CCNC(=O)c2[nH]cnc2C(=O)Nc2ccc(NC(=O)c3ccc(F)cc3Cl)cc2)C1 (centres unmarked) [Example 208, N^4-{4-[(2-chloro-4-fluorobenzoyl)amino]phenyl}-N^5-[2-(3-methylpiperidin-1-yl)ethyl]-1H-imidazole-4,5-dicarboxamide] | 23 | – | – | –
CC(C)(CNC(=O)c1[nH]cnc1C(=O)Nc1ccc(NC(=O)c2ccc(F)cc2)cc1)N1CCCCC1 [Example 209, N^4-{4-[(4-fluorobenzoyl)amino]phenyl}-N^5-[2-methyl-2-(piperidin-1-yl)propyl]-1H-imidazole-4,5-dicarboxamide] | 22 | – | – | –
O=C(Nc1ccc(NC(=O)c2nc[nH]c2C(=O)NCCN2CCCCC2)cc1)c1ccc(F)cc1Br [Example 216, N^4-{4-[(2-bromo-4-fluorobenzoyl)amino]phenyl}-N^5-[2-(piperidin-1-yl)ethyl]-1H-imidazole-4,5-dicarboxamide] | 11 | – | – | –
O=C(Nc1ccc(NC(=O)c2ocnc2C(=O)NCCN2CCC(F)(F)CC2)cc1)c1ccc(F)cc1Cl [Example 218, N^5-{4-[(2-chloro-4-fluorobenzoyl)amino]phenyl}-N^4-[2-(4,4-difluoropiperidin-1-yl)ethyl]-1,3-oxazole-4,5-dicarboxamide] | 31.5 | – | – | –
O=C(Nc1ccc(NC(=O)c2nc[nH]c2C(=O)NC2CCOC2)cc1)c1ccc(F)cc1Cl (centres unmarked) [Example 236, N^4-{4-[(2-chloro-4-fluorobenzoyl)amino]phenyl}-N^5-(tetrahydrofuran-3-yl)-1H-imidazole-4,5-dicarboxamide] | 34 | – | – | –
CNC(=O)c1nc[nH]c1C(=O)Nc1ccc(NC(=O)c2ncccc2Cl)cc1 [Example 247, N^5-(4-{[(3-chloropyridin-2-yl)carbonyl]amino}phenyl)-N^4-methyl-1H-imidazole-4,5-dicarboxamide] | 35 | – | – | –
CCNC(=O)c1nc[nH]c1C(=O)Nc1ccc(NC(=O)c2ccc(OCC)cc2Cl)cc1 [Example 259, N^5-{4-[(2-chloro-4-ethoxybenzoyl)amino]phenyl}-N^4-ethyl-1H-imidazole-4,5-dicarboxamide] | 33 | – | – | –
